Activity calls are given as the source filed them. No rule for the calls is given here.
System: GENE-TOX genotoxicity assays, various organisms and cells
Assay: GENE-TOX mutagenicity studies
Conditions: for call: Assay Type: In vivo carcinogenicity studies, Assay Code: CCG+
Source text: GENE-TOX provides genetic toxicology (mutagenicity) test data from expert peer review of open scientific literature for more than 3,000 chemicals from the United States Environmental Protection Agency (EPA). GENE-TOX was established to select assay systems for evaluation, review data in the scientific literature, and recommend proper testing protocols and evaluation procedures for these systems.
GENE-TOX covers the years 1991 - 1998. It is no longer updated.
This is an archive assay for GENE-TOX mutagenicity studies.

[1] = Species/Cell Type: Neurospora crassa, Assay Type: Reverse gene mutation, Assay Code: NER+, Evaluation Type: Evaluation A (Pre-1980)
[2] = Species/Cell Type: Nonhuman, Evaluation Type: Evaluation A (Pre-1980)
[3] = Species/Cell Type: Saccharomyces cerevisiae, Assay Type: Mitotic recombination or gene conversion, Assay Code: YEH+, Evaluation Type: Evaluation A (Pre-1980)
[4] = Species/Cell Type: Salmonella typhimurium (one or more of the five standard strains: TA98, TA100, TA1535, TA1537, and TA1538), Assay Type: Histidine reverse gene mutation, Ames assay, Assay Code: SAL+*, Activation: With metabolic activation, Evaluation Type: Evaluation A (Pre-1980)
[5] = Species/Cell Type: Nonhuman, Assay Type: Sister-chromatid exchange (SCE) in vitro, Assay Code: SC2+D, Dose Response: With dose response, Evaluation Type: Evaluation B (Post-1980)

SMILES: CN(C)N=O
- mutagenic call (Species/Cell Type: Arabidopsis species, Assay Type: Gene mutation, Assay Code: ARM+D, Dose Response: With dose response, Evaluation Type: Evaluation A (Pre-1980)): active; positive
- mutagenic call (Species/Cell Type: Chinese hamster lung (V79) cells, Assay Type: Forward gene mutation at the HPRT or ouabain locus, Assay Code: V79+, Evaluation Type: Evaluation A (Pre-1980)): active; positive
- mutagenic call (Species/Cell Type: Chinese hamster ovary (CHO) cells, Assay Type: Forward gene mutation at the HPRT locus, Assay Code: CHO+*, Activation: With metabolic activation, Evaluation Type: Evaluation B (Post-1980)): active; positive
- mutagenic call (Species/Cell Type: Chinese hamster ovary (CHO) cells, Assay Type: Forward gene mutation at the HPRT locus, Assay Code: CHO+D, Dose Response: With dose response, Evaluation Type: Evaluation A (Pre-1980)): active; positive
- mutagenic call (Species/Cell Type: Drosophila melanogaster, Assay Type: Sex-linked recessive lethal gene mutation, Assay Code: SRL+, Evaluation Type: Evaluation A (Pre-1980)): active; positive
- mutagenic call (Species/Cell Type: Drosophila melanogaster, Sex: Male, Assay Type: Heritable translocation test, chromosome aberrations, Assay Code: DHT+, Evaluation Type: Evaluation A (Pre-1980)): active; positive
- mutagenic call (Species/Cell Type: Escherichia coli WP2, Assay Type: Tryptophan reverse gene mutation, Assay Code: WP2+*, Activation: With metabolic activation, Evaluation Type: Evaluation A (Pre-1980)): active; positive
- mutagenic call (Species/Cell Type: Escherichia coli WP2 UVRA, Assay Type: Tryptophan reverse gene mutation, Assay Code: WPU+*, Activation: With metabolic activation, Evaluation Type: Evaluation A (Pre-1980)): active; positive
- mutagenic call (Species/Cell Type: Escherichia coli polA (W3110 vs P3478), Assay Type: Rec-assay, DNA effects (bacterial DNA repair), Assay Code: RE2+, Evaluation Type: Evaluation A (Pre-1980)): active; positive
- mutagenic call (Species/Cell Type: Escherichia coli polA (W3119 vs P3478), Assay Type: Rec-assay, DNA effects (bacterial DNA repair), Assay Code: RE1T, Evaluation Type: Evaluation A (Pre-1980)): no conclusion
- mutagenic call (Species/Cell Type: Fischer rat embryo (RLV/1706) cells, Assay Type: Cell transformation, viral enhanced, Assay Code: CTRT, Evaluation Type: Evaluation A (Pre-1980)): no conclusion
- mutagenic call (Species/Cell Type: Human diploid fibroblasts, Assay Type: Unscheduled DNA synthesis (UDS) in vitro, DNA effects, Assay Code: UDH+D, Dose Response: With dose response, Evaluation Type: Evaluation A (Pre-1980)): active; positive
- mutagenic call (Species/Cell Type: Human lymphocytes, Assay Type: Sister-chromatid exchange (SCE) in vitro, Assay Code: SCL+D*, Activation: With metabolic activation, Dose Response: With dose response, Evaluation Type: Evaluation B (Post-1980)): active; positive
- mutagenic call (Species/Cell Type: Human, Assay Type: Sister-chromatid exchange (SCE) in vitro, Assay Code: SC1+D*, Activation: With metabolic activation, Dose Response: With dose response, Evaluation Type: Evaluation B (Post-1980)): active; positive
- mutagenic call (Species/Cell Type: Mammalian germ cells, Sex: Male, Assay Type: Chromosome aberrations in vivo, Assay Code: CY9-, Evaluation Type: Evaluation A (Pre-1980)): inactive; negative
- mutagenic call (Species/Cell Type: Mammalian polychromatic erythrocytes, Assay Type: Micronucleus test, chromosome aberrations, Assay Code: MNT+, Evaluation Type: Evaluation A (Pre-1980)): active; positive
- mutagenic call (Species/Cell Type: Mouse germ cells, Sex: Male, Assay Type: Unscheduled DNA synthesis (UDS) in vivo, DNA effects, Assay Code: UDT-, Evaluation Type: Evaluation A (Pre-1980)): inactive; negative
- mutagenic call (Species/Cell Type: Mouse lymphoma (L5178Y) cells, Assay Type: Forward gene mutation at the thymidine kinase (TK) locus, chromosome aberrations, Assay Code: L51+*, Activation: With metabolic activation, Evaluation Type: Evaluation A (Pre-1980)): active; positive
- mutagenic call (Species/Cell Type: Mouse, Sex: Female, Assay Type: Spot test, gene mutation, Assay Code: MSTT, Evaluation Type: Evaluation A (Pre-1980)): no conclusion
- mutagenic call (Species/Cell Type: Mouse, Sex: Male, Assay Type: Sperm morphology, Assay Code: SPI-, Evaluation Type: Evaluation A (Pre-1980)): inactive; negative
- mutagenic call (Species/Cell Type: Neurospora crassa, Assay Type: Forward gene mutation, Assay Code: NEF+*, Activation: With metabolic activation, Evaluation Type: Evaluation A (Pre-1980)): active; positive
- mutagenic call [1]: active; positive
- mutagenic call (Species/Cell Type: Nonhuman, Assay Type: Chromosome aberrations in vitro, Assay Code: CY&+D*, Activation: With metabolic activation, Dose Response: With dose response, Evaluation Type: Evaluation A (Pre-1980)): active; positive
- call [2]: active; positive
- mutagenic call (Species/Cell Type: Nonhuman, Assay Type: Sister-chromatid exchange (SCE) in vitro, Assay Code: SC2+D, Dose Response: With dose response, Evaluation Type: Evaluation A (Pre-1980)): active; positive
- mutagenic call (Species/Cell Type: Nonhuman, Assay Type: Sister-chromatid exchange (SCE) in vivo, Assay Code: SC3+D, Dose Response: With dose response, Evaluation Type: Evaluation A (Pre-1980)): active; positive
- mutagenic call (Species/Cell Type: Rat primary hepatocytes, Assay Type: Unscheduled DNA synthesis (UDS) in vitro, DNA effects, Assay Code: UDP+, Evaluation Type: Evaluation A (Pre-1980)): active; positive
- mutagenic call (Species/Cell Type: Rodents, Sex: Male, Assay Type: Dominant lethal test, Assay Code: DLTT, Evaluation Type: Evaluation A (Pre-1980)): no conclusion
- mutagenic call (Species/Cell Type: Saccharomyces cerevisiae, Assay Type: Forward gene mutation, Assay Code: YEF+*, Activation: With metabolic activation, Evaluation Type: Evaluation A (Pre-1980)): active; positive
- mutagenic call (Species/Cell Type: Saccharomyces cerevisiae, Assay Type: Mitotic recombination or gene conversion, Assay Code: YEC+*, Activation: With metabolic activation, Evaluation Type: Evaluation A (Pre-1980)): active; positive
- mutagenic call [3]: active; positive
- mutagenic call [4]: active; positive
- mutagenic call (Species/Cell Type: Salmonella typhimurium, Escherichia coli, Neurospora crassa, Saccharomyces cerevisiae, Chinese hamster ovary (CHO) and l, Assay Type: Forward and reverse gene mutation, chromosome aberrations, mitotic recombination and gene conversion, DNA effects, host-, Assay Code: HM4+, Evaluation Type: Evaluation A (Pre-1980)): active; positive
- mutagenic call (Species/Cell Type: Salmonella typhimurium, Assay Type: Forward and reverse gene mutation, body fluid assay, Assay Code: BFU+, Evaluation Type: Evaluation A (Pre-1980)): active; positive
- mutagenic call (Species/Cell Type: Schizosaccharomyces pombe, Assay Type: Forward gene mutation, Assay Code: YEY+*, Activation: With metabolic activation, Evaluation Type: Evaluation A (Pre-1980)): active; positive
- mutagenic call (Species/Cell Type: Syrian hamster embryo (SHE) cells, Assay Type: Cell transformation, clonal assay, Assay Code: CTCT, Evaluation Type: Evaluation A (Pre-1980)): no conclusion

SMILES: C/C=C1/C[C@@H](C)[C@@](C)(O)C(=O)OC/C2=C/CN(C)CC[C@@H](OC1=O)C2=O
- mutagenic call [5]: active; positive

SMILES: O=[N+]([O-])c1ccc2c(ccc[n+]2[O-])c1
- mutagenic call (Species/Cell Type: Human diploid fibroblasts, Assay Type: Unscheduled DNA synthesis (UDS) in vitro, DNA effects, Assay Code: UDH-, Evaluation Type: Evaluation A (Pre-1980)): inactive; negative

SMILES: c1cc2c3c(c1)cc1ccc4cccc5cc(c3c1c45)CC2
- mutagenic call [4]: active; positive

SMILES: O=CNc1nc(-c2ccc([N+](=O)[O-])o2)cs1
- mutagenic call (Species/Cell Type: Bacillus subtilis (H17 vs M45), Assay Type: Rec-assay, spot test, DNA effects (bacterial DNA repair), Assay Code: REW+, Evaluation Type: Evaluation A (Pre-1980)): active; positive
- mutagenic call (Species/Cell Type: Escherichia coli WP2, Assay Type: Tryptophan reverse gene mutation, Assay Code: WP2+, Evaluation Type: Evaluation A (Pre-1980)): active; positive
- mutagenic call (Species/Cell Type: Escherichia coli WP2 UVRA, Assay Type: Tryptophan reverse gene mutation, Assay Code: WPU+D, Dose Response: With dose response, Evaluation Type: Evaluation A (Pre-1980)): active; positive
- mutagenic call (Species/Cell Type: Escherichia coli polA (W3119 vs P3478), Assay Type: Rec-assay, DNA effects (bacterial DNA repair), Assay Code: RE1+, Evaluation Type: Evaluation A (Pre-1980)): active; positive
- mutagenic call (Species/Cell Type: Fischer rat embryo (RLV/1706) cells, Assay Type: Cell transformation, viral enhanced, Assay Code: CTR+, Evaluation Type: Evaluation A (Pre-1980)): active; positive
- mutagenic call (Species/Cell Type: Mouse, Sex: Male, Assay Type: Sperm morphology, Assay Code: SPIT, Evaluation Type: Evaluation A (Pre-1980)): no conclusion
- mutagenic call (Species/Cell Type: Neurospora crassa, Assay Type: Forward gene mutation, Assay Code: NEF+, Evaluation Type: Evaluation A (Pre-1980)): active; positive
- mutagenic call [1]: active; positive
- call [2]: active; positive
- mutagenic call [5]: active; positive
- mutagenic call (Species/Cell Type: Saccharomyces cerevisiae, Assay Type: Mitotic recombination or gene conversion, Assay Code: YEC+, Evaluation Type: Evaluation A (Pre-1980)): active; positive
- mutagenic call [3]: active; positive
- mutagenic call (Species/Cell Type: Salmonella typhimurium (one or more of the five standard strains: TA98, TA100, TA1535, TA1537, and TA1538), Assay Type: Histidine reverse gene mutation, Ames assay, Assay Code: SAL+, Evaluation Type: Evaluation A (Pre-1980)): active; positive
- mutagenic call (Species/Cell Type: Salmonella typhimurium and Saccharomyces cerevisiae, Assay Type: Forward and reverse gene mutation, mitotic recombination and gene conversion, DNA effects, body fluid assay, Assay Code: BFG+, Evaluation Type: Evaluation A (Pre-1980)): active; positive
- mutagenic call (Species/Cell Type: Salmonella typhimurium, Saccharomyces cerevisiae, Assay Type: Forward and reverse gene mutation, mitotic recombination and gene conversion, DNA effects, host-mediated assay, Assay Code: HM3+, Evaluation Type: Evaluation A (Pre-1980)): active; positive
- mutagenic call (Species/Cell Type: Syrian hamster embryo (SHE) cells, Assay Type: Cell transformation, clonal assay, Assay Code: CTC+, Evaluation Type: Evaluation A (Pre-1980)): active; positive

SMILES: NC[C@@H]1CC[C@@H](N)[C@@H](O[C@H]2[C@H](O)[C@@H](O[C@H]3O[C@H](CO)[C@@H](O)[C@H](N)[C@H]3O)[C@H](N)C[C@@H]2N)O1
- mutagenic call (Species/Cell Type: Saccharomyces cerevisiae, Assay Type: Mitotic recombination or gene conversion, Assay Code: YEH-, Evaluation Type: Evaluation A (Pre-1980)): inactive; negative

SMILES: CCCCNC(N)=O
- mutagenic call (Species/Cell Type: Nonhuman, Assay Type: Chromosome aberrations in vitro, Assay Code: CY&-, Evaluation Type: Evaluation A (Pre-1980)): inactive; negative
- mutagenic call (Species/Cell Type: Nonhuman, Assay Type: Sister-chromatid exchange (SCE) in vitro, Assay Code: SC2+, Evaluation Type: Evaluation A (Pre-1980)): active; positive

Source: PubChem BioAssay AID1259408 (Genetic Toxicology Data Bank (GENE-TOX), 2018)
